Assay results published in US5773414A, “Endothelin antagonists” (Warner-Lambert Company, priority 1997, dated 1998).
Structures can show the parent of a compound that is named as a salt. Where two headings read alike, the source gives them in different places. Square brackets hold non-standard residues; d marks the D form. Peptide text beside a SMILES is read from it. dDip = N[C@@H](C(=O)O)C(c1ccccc1)c1ccccc1; d2Nal = N[C@H](Cc1ccc2ccccc2c1)C(=O)O; Orn = NCCC[C@H](N)C(=O)O

Assays:
[1] = target: T1, endothelin-stimulated inositol phosphate accumulation in Rat-1 cells (Rattus norvegicus, UniProt P26684); assay: Inositol Phosphate Accumulation; format: cell-based
T1 sequence (P26684 21-426): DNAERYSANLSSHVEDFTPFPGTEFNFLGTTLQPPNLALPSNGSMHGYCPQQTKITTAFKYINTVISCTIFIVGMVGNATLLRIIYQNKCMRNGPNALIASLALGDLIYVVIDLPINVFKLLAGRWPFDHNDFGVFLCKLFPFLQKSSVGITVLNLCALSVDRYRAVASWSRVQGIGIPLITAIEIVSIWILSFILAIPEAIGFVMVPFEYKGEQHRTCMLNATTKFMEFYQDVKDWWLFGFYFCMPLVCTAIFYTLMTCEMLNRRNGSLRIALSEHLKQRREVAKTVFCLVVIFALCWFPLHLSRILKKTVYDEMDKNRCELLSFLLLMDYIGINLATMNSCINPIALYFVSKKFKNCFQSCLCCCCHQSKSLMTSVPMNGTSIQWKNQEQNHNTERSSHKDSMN
Procedure: Inositol Phosphate Accumulation
The functional activity of compounds of Formula I is determined in Rat-1 cells by measuring intra-cellular levels of second messengers. […] Antagonist activity is assessed as the ability of added compounds to reduce endothelin-stimulated inositol phosphate accumulation.

[2] = tested on: ET-1 induced bronchoconstriction and tracheal smooth muscle contraction; conditions: allergic sheep; cited from earlier work
endotoxic shock = conditions: mouse model of endotoxic shock; cited from earlier work
[3] = target: T2, endothelin receptor (rat heart ventricle) (Rattus norvegicus, UniProt P26684); assay: Rat Heart Ventricle Binding Assay ([125I]-ET-1); conditions: Table II
T2 sequence (P26684 21-426): T1 sequence (P26684 21-426)
Procedure: Rat Heart Ventricle Binding Assay
IC50 values are calculated by weighing nonlinear regression curve-fitting to the mass-action (Langmuir) equation.

[4] = tested on: pulmonary artery rings contracted by SRTX-6c; assay: In vitro isolated vessel study, pulmonary artery rings, agonist SRTX-6c; design: species or system rabbit; conditions: Table III, endothelium-denuded rings
Procedure: In Vitro (Isolated Vessel) Studies
Male New Zealand rabbits were killed by cervical dislocation and exsanguination. Femoral and pulmonary arteries were isolated, cleaned of connective tissue, and cut into 4 mm rings. The endothelium was denuded by placing the rings over hypodermic tubing (32 gauge for femoral rings and 28 gauge for pulmonary rings, Small Parts Inc., Miami, Fla.) and gently rolling them. Denuded rings were mounted in 20 mL organ baths containing Krebs-bicarbonate buffer (composition in mM: NaCl, 118.2; NaHCO3, 24.8; KCl, 4.6; MgSO4, 7.H2 O, 1.2; KH2 PO4, 1.2; CaCl2. 2H2 O; Ca--Na2 EDTA, 0.026; Dextrose, 10.0), that was maintained at 37° C., and gassed continuously with 5% CO2 in oxygen (pH 7.4). Resting tension was adjusted to 3.0 g for femoral and 4.0 g pulmonary arteries; the rings were left for 90 minutes to equilibrate. Tension was monitored with force displacement transducers (Grass FT03, Quincy, Mass.) and recorded on a polygraph (Gould 2108, Cleveland, Ohio) recorder.
Vascular rings were tested for a lack of functional endothelium, i.e., lack of an endothelium-dependent relaxation response to carbachol (1.0 μM) in norepinephrine (0.03 μM) contracted rings. […]
For the in vitro experiments compounds were dissolved in 0.1% acetic acid in distilled water. […] The antagonist activity of various compounds are expressed as PA2 values in Table III.

ETB = target: T3, ETB (Rattus norvegicus, UniProt P21451); assay: Endothelin Receptor Binding Assay-B (ETB), [125I]-ET-1 binding in rat cerebellar membranes; conditions: Table IIa; rat cerebellar membranes; read-out: Binding Assay IC50 at Receptor Subtypes ETB
T3 construct: thaw one aliquot of frozen rat cerebellar membranes; from tissue; host or cells: rat cerebellar membranes
T3 sequence (P21451 27-442): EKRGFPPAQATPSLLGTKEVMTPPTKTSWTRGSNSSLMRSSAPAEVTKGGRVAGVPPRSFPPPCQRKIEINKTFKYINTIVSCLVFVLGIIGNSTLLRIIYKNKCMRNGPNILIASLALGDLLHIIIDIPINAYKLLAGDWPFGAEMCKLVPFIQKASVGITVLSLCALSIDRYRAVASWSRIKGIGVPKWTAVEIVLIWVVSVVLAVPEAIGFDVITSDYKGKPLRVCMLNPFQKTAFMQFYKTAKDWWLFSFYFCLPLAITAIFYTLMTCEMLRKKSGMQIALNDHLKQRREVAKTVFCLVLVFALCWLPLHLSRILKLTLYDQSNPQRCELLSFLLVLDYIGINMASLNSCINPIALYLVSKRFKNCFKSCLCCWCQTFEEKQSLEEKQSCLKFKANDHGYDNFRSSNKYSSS
Procedure: The tissue is made up of 20 mM tris(hydroxymethyl)aminomethane hydrochloride (Trizma) buffer, 2 mM ethylenediaminetetraacetate, 100 μM phenylmethylsulfonyl fluoride.
First, thaw one aliquot of frozen rat cerebellar membranes (2 mg protein in 0.5 mL). Next, add 0.5 mL membrane aliquot to 4.5 mL cold tissue buffer, polytron at 7,500 revolutions per minute for 10 seconds. Finally, dilute tissue suspension 1/100 (0.1 mL suspension+9.9 mL tissue buffer), polytron again, and place ice.
Mix in 150 μL of tissue to each tube, vortex briefly, then tap to force all liquids to bottom (total assay volume=250 μL). Then place the tubes in a 37° C. water bath for 2 hours.
Add 2.5 mL cold water buffer (50 mM Trizma buffer) to each tube, filter, and then wash tube with additional 2.5 mL wash buffer and add to filter. Finally, wash filters with an additional 2.5 mL of cold wash buffer.
Count filters for radioactivity in gamma counter.

ETA = target: T4, ETA (Oryctolagus cuniculus, UniProt A5A8K3); assay: Endothelin Receptor Binding Assay-A (ETA), intact cell binding of [125I]-ET-1; design: species or system rabbit; conditions: Table IIa; rabbit renal artery vascular smooth muscle cells; read-out: Binding Assay IC50 at Receptor Subtypes ETA
T4 construct: The cells used were rabbit renal artery vascular smooth muscle cells; endogenous in cells; host or cells: rabbit renal artery vascular smooth muscle cells
T4 sequence (A5A8K3 21-427): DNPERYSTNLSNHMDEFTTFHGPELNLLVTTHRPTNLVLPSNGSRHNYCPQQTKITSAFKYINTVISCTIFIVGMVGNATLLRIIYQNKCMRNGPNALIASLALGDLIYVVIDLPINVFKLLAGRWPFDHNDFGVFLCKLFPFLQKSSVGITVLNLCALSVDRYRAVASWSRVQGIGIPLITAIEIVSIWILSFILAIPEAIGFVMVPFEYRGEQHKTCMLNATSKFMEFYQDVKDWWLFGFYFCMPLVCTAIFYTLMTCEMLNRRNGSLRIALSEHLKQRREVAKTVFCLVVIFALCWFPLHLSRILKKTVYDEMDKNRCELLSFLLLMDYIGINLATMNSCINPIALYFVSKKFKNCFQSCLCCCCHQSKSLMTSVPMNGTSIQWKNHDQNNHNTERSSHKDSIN
Procedure: The cells used were rabbit renal artery vascular smooth muscle cells grown in a 48-well dish (1 cm^2) (confluent cells).
The growth media was Dulbeccos Modified Eagles/Ham's F12 which contained 10 fetal bovine serum and antibiotics (penicillin/streptomycin/fungizone).
Second, remove the assay buffers, place the dish on ice, and add 150 μL of cold assay buffer described above to each well. […] Next, place dish in a 37° C. water bath for about 2 hours and gently agitate the dish every 15 minutes. Discard the radioactive incubation mixture in the sink and wash wells 3 times with 1 mL of cold phosphate buffered saline. Last, add […] of 0.25M sodium hydroxide, agitate for 1 hour on rotator, and then transfer the sodium hydroxide extract to gamma counting tubes and count the radioactivity.

Q: For `CC[C@H](C)[C@H](NC(=O)[C@H](CC(=O)O)NC(=O)[C@H](CC(C)C)NC(=O)[C@H](N)Cc1ccc2ccccc2c1)C(=O)N[C@H](C(=O)N[C@@H](Cc1c[nH]c2ccccc12)C(=O)O)[C@@H](C)CC` [Example 4, D-2-Nal--Leu--Asp--Ile--Ile--Trp] (H-[d2Nal]LDIIW-OH; N-terminus and C-terminus assumed), which inhibition at 50 µM ([1]; Table II, read-out: IP (Inositol Phosphate) Accumulation, Inhibition) is on record?
A: Its inhibition at 50 µM is 53%.

Q: What about the inhibition at 50 µM ([1]; Table IIa, read-out: IP (Inositol Phosphate) Accumulation, % Inhibition) of the same molecule?
A: Its inhibition at 50 µM is 53%.

Q: Which “effect on ET-1 induced bronchoconstriction and tracheal smooth muscle contraction” value [2] does the source give for `CC(C)C[C@@H]1NC(=O)[C@@H](C(C)C)NC(=O)[C@@H]2CCCN2C(=O)[C@@H](CC(=O)O)NC(=O)[C@@H](Cc2c[nH]c3ccccc23)NC1=O` [BQ-123] (cyclo(L[dW][dD]P[dV])) here?
A: Its value is “block ET-1 induced bronchoconstriction and tracheal smooth muscle contraction”.

Q: What about the survival rate (endotoxic shock) of the same molecule?
A: The survival rate was “significantly increased”.

Q: Which inhibition at 10 µM [3] does the source give for `CC[C@H](C)[C@H](NC(=O)[C@H](CC(=O)O)NC(=O)[C@@H](CC(C)C)NC(=O)[C@H](NC(C)=O)C(c1ccccc1)c1ccccc1)C(=O)N[C@H](C(=O)N[C@@H](Cc1c[nH]c2ccccc12)C(=O)O)[C@@H](C)CC` [Example 23, Ac--D--Dip--D--Leu--Asp--Ile--Ile--Trp] (Ac-[dDip][dL]DIIW-OH) here?
A: Its inhibition at 10 µM is 41.3%.

Q: With `CC[C@H](C)[C@H](NC(=O)[C@H](CC(=O)O)NC(=O)[C@H](CC(C)C)NC(=O)[C@H](NC(C)=O)C(c1ccccc1)c1ccccc1)C(=O)N[C@H](C(=O)N[C@@H](Cc1c[nH]c2ccccc12)C(=O)O)[C@@H](C)CC` [Disodium salt of Ac-D-Dip-Leu-Asp-Ile-Ile-Trp] (Ac-[dDip]LDIIW-OH) as the molecule, how does the “pA2, rabbit pulmonary artery” value [4] read?
A: Its value is 6.26.

Q: For `CC[C@H](C)[C@H](NC(=O)[C@H](CC(=O)O)NC(=O)[C@H](CCC(=O)O)NC(=O)[C@H](NC(C)=O)C(c1ccccc1)c1ccccc1)C(=O)N[C@H](C(=O)N[C@@H](Cc1c[nH]c2ccccc12)C(=O)O)[C@@H](C)CC` [Example 20, Ac--D--Dip--Glu--Asp--Ile--Ile--Trp] (Ac-[dDip]EDIIW-OH), which IC50 (ETB) is on record?
A: Its IC50 is 0.052 µM.

Q: What about the “pA2, rabbit pulmonary artery” value [4] of the same molecule?
A: The value was 6.85.

Q: And the IC50 (ETA)?
A: The IC50 was 0.025 µM.

Q: Which IC50 (ETB) does the source give for `CC[C@H](C)[C@H](NC(=O)[C@H](CC(=O)O)NC(=O)[C@H](CC(C)C)NC(=O)[C@H](NC(C)=O)C(c1ccccc1)c1ccccc1)C(=O)N[C@@H](CCCCN)C(=O)N[C@@H](Cc1c[nH]c2ccccc12)C(=O)O` [Example 17, Ac--D--Dip--Leu--Asp--Ile--Lys--Trp] (Ac-[dDip]LDIKW-OH) here?
A: The IC50 was 4.2 µM.

Q: What about the inhibition at 10 µM [3] of the same molecule?
A: Its inhibition at 10 µM is 24.6%.

Q: And the IC50 (ETA)?
A: The IC50 was over 10 µM.

Q: With `CC[C@H](C)[C@H](NC(=O)[C@H](CC(=O)O)NC(=O)[C@H](CC(C)C)NC(=O)[C@H](NC(C)=O)C(c1ccccc1)c1ccccc1)C(=O)N[C@@H](CCC(=O)O)C(=O)N[C@@H](Cc1c[nH]c2ccccc12)C(=O)O` [Example 18, Ac--D--Dip--Leu--Asp--Ile--Glu--Trp] (Ac-[dDip]LDIEW-OH) as the molecule, how does the inhibition at 10 µM [3] read?
A: Its inhibition at 10 µM is 37%.

Q: With `CC[C@H](C)[C@H](NC(=O)[C@H](CC(=O)O)NC(=O)[C@@H](Cc1ccccc1)NC(C)=O)C(=O)N[C@H](C(=O)N[C@@H](Cc1c[nH]c2ccccc12)C(=O)O)[C@@H](C)CC` [Example 11, Ac--D--Phe--Asp--Ile--Ile--Trp] (Ac-[dF]DIIW-OH) as the molecule, how does the IC50 (ETB) read?
A: Its IC50 is 9.3 µM.

Q: What about the inhibition at 10 µM ([1]; Table IIa, @ 10 μM, read-out: IP (Inositol Phosphate) Accumulation, % Inhibition) of the same molecule?
A: Its inhibition at 10 µM is 30%.

Q: And the IC50 (ETA)?
A: Its IC50 is 9.1 µM.

Q: With `CC[C@H](C)[C@H](NC(=O)[C@H](CC(=O)O)NC(=O)[C@H](CCCN)NC(=O)[C@H](NC(C)=O)C(c1ccccc1)c1ccccc1)C(=O)N[C@H](C(=O)N[C@@H](Cc1c[nH]c2ccccc12)C(=O)O)[C@@H](C)CC` [Example 21, Ac--D--Dip--Orn--Asp--Ile--Ile--Trp] (Ac-[dDip][Orn]DIIW-OH) as the molecule, how does the IC50 (ETB) read?
A: The IC50 was 0.22 µM.

Q: What about the inhibition at 0.05 µM ([3]; @ 0.05 μM) of the same molecule?
A: Its inhibition at 0.05 µM is 79%.

Q: And the IC50 (ETA)?
A: Its IC50 is 0.015 µM.
